Consider four molecules from US20220274979A1 (Bayer Pharma Aktiengesellschaft, priority 2018, published 2022).

Molecules are shown by their SMILES. Bounds are passed on as bounds.

The target in the assay is T1, Epidermal Growth Factor Receptor (EGFR) (Homo sapiens, UniProt P00533).
T1 construct: purchased Sigma-Aldrich E3641
T1 sequence (P00533 25-1210): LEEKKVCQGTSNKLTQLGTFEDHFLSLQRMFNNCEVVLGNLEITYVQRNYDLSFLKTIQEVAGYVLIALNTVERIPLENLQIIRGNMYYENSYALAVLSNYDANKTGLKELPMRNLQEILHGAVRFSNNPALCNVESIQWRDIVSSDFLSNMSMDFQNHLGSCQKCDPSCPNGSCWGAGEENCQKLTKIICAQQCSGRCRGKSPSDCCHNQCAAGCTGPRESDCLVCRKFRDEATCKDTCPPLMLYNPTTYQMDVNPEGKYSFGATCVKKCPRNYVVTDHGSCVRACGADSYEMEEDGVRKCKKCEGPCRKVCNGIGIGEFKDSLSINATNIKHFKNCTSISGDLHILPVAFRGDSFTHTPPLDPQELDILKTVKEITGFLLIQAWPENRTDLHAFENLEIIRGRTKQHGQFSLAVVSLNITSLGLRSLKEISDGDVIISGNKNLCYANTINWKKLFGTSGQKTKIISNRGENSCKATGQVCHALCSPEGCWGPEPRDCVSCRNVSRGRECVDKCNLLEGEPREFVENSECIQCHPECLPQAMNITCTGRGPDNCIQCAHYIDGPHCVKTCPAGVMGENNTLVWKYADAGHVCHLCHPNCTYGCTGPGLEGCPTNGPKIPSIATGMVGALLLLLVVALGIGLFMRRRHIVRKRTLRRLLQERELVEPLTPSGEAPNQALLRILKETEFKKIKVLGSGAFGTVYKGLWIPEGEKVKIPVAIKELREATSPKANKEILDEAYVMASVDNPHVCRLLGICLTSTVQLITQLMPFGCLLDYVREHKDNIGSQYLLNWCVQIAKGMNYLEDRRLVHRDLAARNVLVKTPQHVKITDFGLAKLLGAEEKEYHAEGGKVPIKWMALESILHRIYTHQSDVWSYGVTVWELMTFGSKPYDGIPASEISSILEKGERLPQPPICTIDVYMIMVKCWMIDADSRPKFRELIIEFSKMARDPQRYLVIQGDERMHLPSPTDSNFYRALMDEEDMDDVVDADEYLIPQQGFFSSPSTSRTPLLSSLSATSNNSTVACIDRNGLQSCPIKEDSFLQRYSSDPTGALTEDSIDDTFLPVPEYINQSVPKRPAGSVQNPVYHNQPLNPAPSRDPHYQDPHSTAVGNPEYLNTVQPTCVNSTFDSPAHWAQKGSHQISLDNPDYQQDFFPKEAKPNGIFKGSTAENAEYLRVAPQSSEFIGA
Nature of the assay: EGFR kinase assay (TR-FRET). The assay is classed as biochemical. Conditions: 10 μM ATP; read-out: EGFR kinase inhibition IC50. The source says: EGFR inhibitory activity of compounds of the present invention was quantified employing the TR-FRET based EGFR assay as described in the following paragraphs.
Epidermal Growth Factor Receptor (EGFR) affinity purified from human carcinoma A431 cells (Sigma-Aldrich, # E3641) was used as kinase. As substrate for the kinase reaction the biotinylated peptide biotin-Ahx-[…] (SEQ ID NO: 8, C-terminus in amid form) was used which can be purchased e.g. form the company Biosyntan GmbH (Berlin-Buch, Germany).
For the assay 50 nL of a 100 fold concentrated solution of the test compound in DMSO was pipetted into a black low volume 384 well microtiter plate (Greiner Bio-One, Frickenhausen, Germany), 2 μL of a solution of EGFR in aqueous assay buffer [50 mM Hepes/HCl pH 7.0, 1 mM MgCl2, 5 mM MnCl2, 0.5 mM activated sodium ortho-vanadate, 0.005% (v/v) Tween-20]were added and the mixture was incubated for […] at 22° C. to allow pre-binding of the test compounds to the enzyme before the start of the kinase reaction. Then the kinase reaction was started by the addition of 3 μL of a solution of adenosine-tri-phosphate (ATP, 16.7 μM=>final conc. in the 5 μL assay volume is 10 μM) and substrate (1.67 μM =>final conc. in the 5 μL assay volume is 1μM) in assay buffer and the resulting mixture was incubated for a reaction time of […] at 22° C. The concentration of EGFR was adjusted depending of the activity of the enzyme lot and was chosen appropriate to have the assay in the linear range, typical concentration were about 3 U/ml. The reaction was stopped by the addition of 5 μl of a solution of HTRF detection reagents (0.1 μM streptavidine-XL665 [Cis Biointernational]and 1 nM PT66-Tb-Cryptate, an terbium-cryptate labelled anti-phospho-tyrosine antibody from Cis Biointernational [instead of the PT66-Tb-cryptate PT66-Eu-Chelate from Perkin Elmer can also be used]) in an aqueous EDTA-solution (80 mM EDTA, 0.2% (w/v) bovine serum albumin in 50 mM HEPES pH 7.5).
The resulting mixture was incubated 1 h at 22° C. to allow the binding of the biotinylated phosphorylated peptide to the streptavidine-XL665 and the PT66-Eu-Chelate. Subsequently the amount of phosphorylated substrate was evaluated by measurement of the resonance energy transfer from the PT66-Tb-Cryptate to the streptavidine-XL665. Therefore, the fluorescence emissions at 620 nm and 665 nm after excitation at 337 nm were measured in a HTRF reader, e.g. a Pherastar (BMG Labtechnologies, Offenburg, Germany) or a Viewlux (Perkin-Elmer). The ratio of the emissions at 665 nm and at […] was taken as the measure for the amount of phosphorylated substrate.
(Time-resolved FRET reads energy transfer from a long-lived donor to a nearby acceptor.)
By IC50 is commonly meant the concentration at which inhibition is half-maximal. As for `CC(=O)N[C@@H]1CCN(c2cc3c(NC(C)c4ccc(-c5ccccc5CN(C)C)s4)nc(C)nc3cn2)C1` (single isomer, unassigned) [Example 79], the IC50 was over 20 µM. For the molecule `CC(=O)N[C@@H]1CCN(c2cc3c(NC(C)c4ccc(-c5ccccc5CN(C)C)s4)nc(C)nc3cn2)C1` (single isomer, unassigned) [Example 80], the IC50 is over 20 µM. Take `CC(=O)N[C@H]1CCN(c2cc3c(NC(C)c4ccc(-c5ccccc5CN(C)C)s4)nc(C)nc3cn2)C1` (single isomer, unassigned) [Example 81]: the half-maximal inhibitory concentration (IC50) was over 20 µM. With `CC(=O)N[C@H]1CCN(c2cc3c(NC(C)c4ccc(-c5ccccc5CN(C)C)s4)nc(C)nc3cn2)C1` (single isomer, unassigned) [Example 82], the IC50 is over 20 µM.
